Test results published in publication PMC4500165 (Pure and applied chemistry. Chimie pure et appliquee, 2013).

Biological target: T1, peanut agglutinin (PNA) (Arachis hypogaea, UniProt P02872)
T1 sequence (P02872 24-273): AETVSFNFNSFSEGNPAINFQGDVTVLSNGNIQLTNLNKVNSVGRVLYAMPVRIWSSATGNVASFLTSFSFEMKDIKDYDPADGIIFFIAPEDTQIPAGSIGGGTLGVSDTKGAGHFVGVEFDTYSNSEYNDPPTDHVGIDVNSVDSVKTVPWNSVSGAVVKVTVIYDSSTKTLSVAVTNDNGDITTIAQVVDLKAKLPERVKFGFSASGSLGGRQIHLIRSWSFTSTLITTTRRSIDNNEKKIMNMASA
Test: isothermal titration calorimetry, one-site model
Type: binding

Question: Which Kd does the source give for `[N-]=[N+]=Nc1c(F)c(F)c(C(=O)NCCOCCOCCS[C@@H]2O[C@H](CO)[C@@H](O[C@@H]3O[C@H](CO)[C@H](O)[C@H](O)[C@H]3O)[C@H](O)[C@H]2O)c(F)c1F` [compound 5, 2-(2-(2-(4-Azido-2,3,5,6-tetrafluorobenzamido)ethoxy)ethoxy)ethyl 4-O-β-D-galactopyranosyl-1-thio-β-D-glucopyranoside] here?
Answer: The Kd was 549 µM.
